Results taken from article PMC10149936, “Cofilin activation in pancreatic acinar cells plays a pivotal convergent role for mediating CCK-stimulated enzyme secretion and growth” (Frontiers in Physiology, 2023).

Key:
[1] = tested on: cofilin / total PP2A association; assay: co-immunoprecipitation of cofilin with total PP2A in pancreatic acini; format: cell-based, rat; settings: for increase in total PP2A co-immunoprecipitation with cofilin: CCK-8 100 nM 3 min, TPA 1 µM 5 min, Figure 8B
Method: For co-immunoprecipitation, 600 μg of protein was incubated with 15 μL of the anti-cofilin antibody (Santa Cruz Biotechnology, Inc. Dallas, TX) and 25 μL of protein A/G agarose beads (Thermo-Fisher Scientific. Waltham, MA) overnight at 4°C under agitation. Samples were washed three times with lysis buffer, re-suspended in 12.5 μL of Sample Buffer, Laemlii 2x concentrate and boiled for 5 min before western blotting.
FIGURE 6 Effect of CCK-8 (100 nM) to alter co-immunoprecipitation of cofilin with total PP2A (A) or PP1 (B). Isolated pancreatic acini were incubated in the absence or presence of CCK-8 (100 nM) for 3 min and then lysed. Equal amounts of protein were co-immunoprecipitated with an anti-cofilin (Santa Cruz, SC-376476) and then subjected to Western blots using anti-PP2A and anti-PP1. Bands were visualized using chemiluminescence and quantified by densitometry. Top: Results of a representative blot of four independent experiments are shown. Bottom: Means ± S.E. of at least 4 independent experiments. Results are expressed as % of basal stimulation of the control group. N.S., No significant. Effect of the lysate, lysis buffer, Protein A/G agarose beads (beads) or Anti-cofilin antibody (Anti-cofilin ab) individually on phospho and total cofilin (pS3), phospho and total PP2A, phospho and total PP1 and tubulin. Lysates were analyzed using cofilin (pS3), Total cofilin, PP2A (pY307), Total PP2A, PP1(pT320), Total PP1 and tubulin. Antibody detecting tubulin was used to verify loading of equal amounts of protein.
FIGURE 8 Effect of a PKD inhibitor, kbNB, or a Src inhibitor, PP2, on the ability of CCK-8 (100 nM) and TPA (1 µM) to stimulate the association of cofilin with either phospho-PP2A (A) or total PP2A (B). Isolated pancreatic acini were incubated in the absence or presence of kbNB (0.1 µM) or PP2 (10 µM) for 3 h and then incubated with no addition (control), CCK-8 (100 nM, 3 min) or TPA (1 μM, 5 min), and then lysed. […] Bands were visualized using chemiluminescence and quantified by densitometry. […] Results are expressed as % of basal stimulation of the control group. […]

[2] = tested on: cofilin (pS3) in AR42J cells; assay: cofilin activation (pS3 cofilin Western blot) in AR42J cells; format: cell-based; settings: Cytochalasin D 10 µM or Paclitaxel 5 µM, 4 h; A71378 30 nM 10 min
Method: CCK1 receptor transfected Panc-1 (CCK1-R/Panc-1) cells ([Berna et al., 2009]) and AR42J cells, were cultured in DMEM supplemented with 10% FBS and 1% penicillin/streptomycin and in RPMI supplemented with 10% FBS and 1% penicillin/streptomycin, respectively; and split 1:10 weekly with trypsin/EDTA, after washing in PBS. Finally, cells were seeded in 6-well plate and serum starved overnight, until they were 80% confluent. Cells were incubated at 37°C in 5% CO2/95% air. AR42J cells were treated with 100 nM dexamethasone for 72°h, which stimulates their differentiation into exocrine cells ([Logsdon, 1986]).
Western blotting and immunoprecipitation were performed as described previously ([Ramos-Alvarez and Jensen, 2018]). Whole cell lysates were subjected to SDS-PAGE using 4%–20% Tris–Glycine gels. […] The intensity of the protein bands was measured using GeneTools software from Syngene, which were assessed in the linear detection range.
FIGURE 12 Effect of two cofilin inhibitors, Cytochalasin D or Paclitaxel (A, B), or cofilin siRNA (C), on the ability of A71378 (30 and 10 nM) to alter activation of cofilin (A) and p44/42 (B, C). […] Western blots were analyzed using anti-pS3 cofilin, anti-pT202/Y204 p44/42 and Tubulin. Bands were visualized using chemiluminescence and quantified by densitometry. […] Results are expressed as % of basal stimulation of the control group. […]

Compound | increase in total PP2A co-immunoprecipitation with cofilin [1] | increase in PP2A immunoprecipitation with cofilin ([1]; CCK-8 100 nM, 3 min, Figure 6) | inhibition of CCK1-R-induced activation of cofilin in AR42J cells [2]
COOH-terminal octapeptide of cholecystokinin [CCK-8] | 40% | 25% | 
C=C1[C@@H](C)[C@H]2[C@H](Cc3ccccc3)NC(=O)[C@]23[C@H](OC(C)=O)/C=C/[C@@](C)(O)C(=O)[C@@H](C)C/C=C/[C@H]3[C@@H]1O [Cytochalasin D] |  |  | completely inhibited
CCCCCCCCCCCCCC(=O)O[C@@H]1[C@@H](C)[C@@]2(O)[C@@H](C=C(CO)C[C@]3(O)C(=O)C(C)=C[C@@H]23)[C@H]2C(C)(C)[C@]12OC(C)=O [TPA, 12-O-tetradecanoylphobol-13-acetate] | 40% |  | 
CC(=O)O[C@H]1C(=O)[C@@]2(C)[C@H]([C@H](OC(=O)c3ccccc3)[C@]3(O)C[C@H](OC(=O)[C@H](O)[C@@H](NC(=O)c4ccccc4)c4ccccc4)C(C)=C1C3(C)C)[C@]1(OC(C)=O)CO[C@@H]1C[C@@H]2O [Paclitaxel] |  |  | completely inhibited
